Like-named read-outs stand apart in the source and are kept apart here.
Experiments:
[1] = tested on: EMT-6 mouse mammary tumor cells; experiment: In vitro cytotoxicity screen (colony formation); assay type: cell-based; settings: 1 hour drug exposure at 37° C., EMT-6 colony formation
Protocol: Cell Line and Culture. The cell line used in the screen was EMT-6 mouse mammary tumor cells in culture that were maintained in exponential growth in Waymouth's medium (I.S.I. Corp., Chicago, Ill.), supplemented with 15% newborn calf serum, penicillin (100 units/ml), and streptomycin (100 μg/ml) (Grand Island Biological Co., Grand Island, N.Y.). The doubling time of these cultures, growing at 37° C. in a 5% CO2 /95% air atmosphere, was 16-19 hours. In vitro plating efficiencies of control cultures were 65-80%.
Production of Hypoxia. To produce hypoxia, plastic flasks, containing exponentially growing monolayers of tumor cells in complete medium plus serum, were fitted with sterile rubber septums and exposed to a continuously flowing 95% N2 /5% CO2 humidified atmosphere for 4 hours at 37° C. as described by B. A. Teicher et al., Int. J. Radiat. Oncol. Biol. Phy., 11:937-940 (1985); and B. A. Teicher et al., Cancer Res., 41:73-81 (1981). Parallel flasks were maintained in 95% air/5% CO2. At the end of 4 hours, the drug specified in Table I below was added to the flasks by injection through the rubber septum without disturbing the hypoxia. […]
Drug Treatments. Exponentially growing cells were exposed to varying concentrations of the drugs specified in Table I below for 1 hour at 37° C. Non-drug-treated controls were handled identically. Drugs were prepared in sterile phosphate-buffered saline immediately before use and added to the cells in a small volume (50-100 μl). […] After treatment, the medium was removed, and the cultures were washed twice with phosphate buffered saline and suspended by trypsinization.
Cell Viability Measurements. Cell viability was measured by the ability of single cells to form colonies in vitro, as described by B. A. Teicher et al., Int. J. Radiat. Oncol. Biol. Phys., 11:937-940 (1985); and B. A. Teicher et al., Cancer Res., 41:73-81 (1981). Following treatment, suspensions of known cell numbers were plated in plastic Petri dishes and allowed to grow in a 37° C. incubator under standard culture conditions for 8-10 days. After this time interval, macroscopic colonies were stained with crystal violet in methanol containing 3.7% formaldehyde and were counted manually. Each experiment was repeated 3 times and each data point per experiment represents the results of 3 different dilutions of cells plated in triplicate.

L1210 leukemia = experiment: In vivo antitumor test, L1210 leukemia implanted i.p. in DBA mice; settings: for SURVIVAL: lifespan post tumor cell inoculation; for % ILS: vs untreated controls
Protocol: L1210 leukemia (10^6) cells were implanted intraperitoneally in DBA mice (Taconic Farms, Germantown, N.Y.) on day 0. Treatment with each drug was carried out daily for 5 days. The drugs were administered intraperitoneally at the doses shown on Table II below. Each treatment group had six animals and the experiment was carried out twice. The percent increase-in-lifespan (% ILS) is for the treated subjects compared with the untreated controls.
^a Drugs were administered i.p. daily on days 1-5.
^b Lifespan of the animals post tumor cell innoculation.

[2] = Mus musculus, EMT6, 1 h, Hypoxia, read-out: IC50
[3] = Mus musculus, EMT6, 1 h, Normal oxygenation, read-out: IC50
[4] = Mus musculus, EMT6, Normal oxygenation, read-out: IC90
[5] = 1.00 mg/kg i.p. daily on days 1-5
[6] = 2.50 mg/kg i.p. daily on days 1-5
[7] = 5.00 mg/kg i.p. daily on days 1-5
[8] = 10.00 mg/kg i.p. daily on days 1-5
[9] = Mus musculus, EMT6, 1 h, Hypoxia
[10] = Mus musculus, EMT6, 1 h, Normal oxygenation
[11] = 0.50 mg/kg i.p. daily on days 1-5
[12] = 1.25 mg/kg i.p. daily on days 1-5
[13] = 1.50 mg/kg i.p. daily on days 1-5
[14] = 2.00 mg/kg i.p. daily on days 1-5

Row | SMILES | IC90 ([1]; Hypoxia, read-out: IC90) [µM] | IC50 [1, 2] [µM] | IC50 [1, 3] [µM] | IC90 [1, 4] [µM] | SURVIVAL (L1210 leukemia; [5]) [days] | % ILS (L1210 leukemia; [5]) [%] | SURVIVAL (L1210 leukemia; [6]) [days] | % ILS (L1210 leukemia; [6]) | SURVIVAL (L1210 leukemia; [7]) [days] | % ILS (L1210 leukemia; [7]) [%] | SURVIVAL (L1210 leukemia; [8]) [days] | % ILS (L1210 leukemia; [8]) | further results
1 | CCN(CC)C1=CC(=O)C(=O)C=C1N(CC)CC [4,5-bis-(Diethylamino)-1,2-Benzoquinone, 4,5-bis-(diethylamino)-1,2-benzoquinone] | > 500 | 400 | 500 | > 500 | 7.8 | 5 | 8.4 | 14% | 8.6 | 16 | 7.8 | 5% | –
2 | O=C1C=C(N2CCCC2)C(N2CCCC2)=CC1=O [4,5-Pyrrolidinyl-1,2-Benzoquinone, 4,5-pyrrolidinyl-1,2-benzoquinone] | > 500 | > 500 | > 500 | > 500 | 8.0 | 8 | 8.0 | 8% | 7.6 | 3 | 6.3 | toxic | –
3 | O=C1C=C(N2CCC2)C(N2CCC2)=CC1=O [4,5-Azetidinyl-1,2-Benzoquinone, 4,5-azetidinyl-1,2-benzoquinone] | > 500 | 400 | 500 | > 500 | 8.0 | 8 | 7.8 | 5% | 7.8 | 5 | 6.4 | toxic | –
4 | COC1=CC(=O)C(=O)C=C1OC [4,5-Methoxy-1,2-Benzoquinone, 4,5-Dimethoxy-1,2-benzoquinone, reference compound] | > 500 | > 500 | 500 | > 500 | – | – | – | – | – | – | – | – | –
5 | COC1=CC(=O)C(=O)C=C1NCCCl [4-chloroethylamino-5-methoxy-1,2-benzoquinone] | – | – | – | – | – | – | – | – | – | – | – | – | IC50 [1, 9]: 110 µM; IC90 [1, 9]: 190 µM; IC50 [1, 10]: 125 µM; IC90 [1, 10]: 455 µM
6 | CCOC(=O)NC1=C(N2CC2)C(=O)C(NC(=O)OCC)=C(N2CC2)C1=O [AZQ, 3,6-bis(ethylcarboxyamino)-2,5-diaziridinyl-1,4-benzoquinone, reference compound] | – | 7.5 | 5 | – | – | – | – | – | – | – | – | – | IC90 ([1]; Mus musculus, EMT6, 1 h, Hypoxia, read-out: IC90): 17.5 µM; IC90 ([1]; Mus musculus, EMT6, 1 h, Normal oxygenation, read-out: IC90): 15.5 µM
7 | O=C1C=C(N2CC2)C(N2CC2)=CC1=O [4,5-Aziridinyl-1,2-Benzoquinone, 4,5-aziridinyl-1,2-benzoquinone] | – | – | – | – | 13.4 | 81 | 6.0 | toxic | – | – | – | – | IC50 [1, 9]: 0.2 µM; IC90 [1, 9]: 1 µM; IC50 [1, 10]: 0.4 µM; IC90 [1, 10]: 1.1 µM; SURVIVAL (L1210 leukemia; [11]): 12.6 days; % ILS (L1210 leukemia; [11]): 70%; SURVIVAL (L1210 leukemia; [12]): 13.6 days; % ILS (L1210 leukemia; [12]): 84%; SURVIVAL (L1210 leukemia; [13]): 13.8 days; % ILS (L1210 leukemia; [13]): 86%; SURVIVAL (L1210 leukemia; [14]): 11.8 days; % ILS (L1210 leukemia; [14]): 59%
